How the values were obtained:
Mac-1/ICAM-1 = Mac-1/ICAM-1 (Homo sapiens, UniProt P05107+P11215); assay: Mac-1/ICAM-1 ELISA; details: Mac-1 coated plates, 5dICAM-Fc binding
Experimental: sLFA-1/ICAM-1 ELISA and Mac-1/ICAM-1 ELISA
Plates were coated with either 50 μl/well of 2.0 ug/ml solution of sLFA-1 or Mac-1 receptor in divalent cation buffer (1 mM MnCl2, 0.14M NaCl, 20 mM HEPES pH 7.2) at 4° C. overnight. Two hundred fifty μl of blocking buffer (1% BSA in divalent cation buffer) was added to each well 1 hour at 37° C. Plates were washed 3 times with wash buffer (TBS/0.05% Tween-20/1 mM MnCl2). The compound to be tested was solubilized in DMSO. A series of 1:3 dilutions were performed to achieve a concentration range of 0.45 nM-3 uM. Fifty μl of binding buffer (0.5% BSA in divalent cation buffer)/1% DMSO and 50 μl of the solutions to be tested were added to the appropriate wells and incubated for 1 hour. Fifty μl of 5dICAM-Fc (27 ng/ml) was added to the appropriate wells and 50 μl binding buffer was added to non-specific binding wells and incubated for 2 hours and washed. One hundred μl of 1:4000 HRP-goat anti-huIgG was added to each well and incubated for 1 hour and washed. One hundred μl of 1:1 TMB solution was added to each well and developed for 20 min at room temperature. Color development was stopped by adding 100 μl H3PO4 to each well. Absorbance was measured at 450 nm.

sLFA-1/ICAM-1 = sLFA-1/ICAM-1 (Homo sapiens, UniProt P05107+P20701, DEL701-769); assay: sLFA-1/ICAM-1 ELISA; format: binding; details: sLFA-1 coated plates, 5dICAM-Fc binding, ELISA; read-out: LFA-1/ICAM (IC50)
Method in brief: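 Plates coated with sLFA-1 or Mac-1 (2.0 ug/ml) in Mn2+ buffer (1 mM MnCl2, 20 mM HEPES pH 7.2); compounds (0.45 nM-3 uM, 1% DMSO) preincubated 1 h, then 5dICAM-Fc (27 ng/ml) bound 2 h. Bound ICAM-Fc detected with HRP anti-human IgG and TMB, absorbance 450 nm.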

[1] = test system: PBMC's from two healthy donors; assay: Human Mixed Lymphocyte Reaction (hMLR); format: cell-based; details: 3H-thymidine incorporation, read-out: human MLR (IC50)
Experimental: Human Mixed Lymphocyte Reaction (hMLR)
PBMC's were isolated from two healthy donors by Ficoll gradient. Cells were resuspended with 4 mL assay media and counted with a Coulter Counter. Both cell populations were resuspended to 1×10^7/mL. Stimulator cells were irradiated for 2.5 min (2000 RAD) in cesium irradiator. 5×10^5 cells were added to duplicate wells of the plate. Included were quadruplicate wells receiving responder cells alone and stimulator cells alone. The compound to be tested was solubilized in DMSO. A series of 1:3 dilutions were performed to achieve a concentration range of 0.45 nM-3 uM. One hundred μl of the solutions to be tested were added to the cell plate (100 μl of 2% DMSO/media added to control wells). Plates were then incubated for 2.5 days at 37° C. with 5% CO2. Plates were pulsed with 50 μl/well 3H-thymidine at 0.5 uCi/well then incubated for 6 hours at 37° C. with 5% CO2. Cells were harvested using Cell Harvester (TomTec) and counted on TopCount (Perkin Elmer).

Chain of sLFA-1/ICAM-1 (P20701 26-1090 limits assumed, stated change not applied): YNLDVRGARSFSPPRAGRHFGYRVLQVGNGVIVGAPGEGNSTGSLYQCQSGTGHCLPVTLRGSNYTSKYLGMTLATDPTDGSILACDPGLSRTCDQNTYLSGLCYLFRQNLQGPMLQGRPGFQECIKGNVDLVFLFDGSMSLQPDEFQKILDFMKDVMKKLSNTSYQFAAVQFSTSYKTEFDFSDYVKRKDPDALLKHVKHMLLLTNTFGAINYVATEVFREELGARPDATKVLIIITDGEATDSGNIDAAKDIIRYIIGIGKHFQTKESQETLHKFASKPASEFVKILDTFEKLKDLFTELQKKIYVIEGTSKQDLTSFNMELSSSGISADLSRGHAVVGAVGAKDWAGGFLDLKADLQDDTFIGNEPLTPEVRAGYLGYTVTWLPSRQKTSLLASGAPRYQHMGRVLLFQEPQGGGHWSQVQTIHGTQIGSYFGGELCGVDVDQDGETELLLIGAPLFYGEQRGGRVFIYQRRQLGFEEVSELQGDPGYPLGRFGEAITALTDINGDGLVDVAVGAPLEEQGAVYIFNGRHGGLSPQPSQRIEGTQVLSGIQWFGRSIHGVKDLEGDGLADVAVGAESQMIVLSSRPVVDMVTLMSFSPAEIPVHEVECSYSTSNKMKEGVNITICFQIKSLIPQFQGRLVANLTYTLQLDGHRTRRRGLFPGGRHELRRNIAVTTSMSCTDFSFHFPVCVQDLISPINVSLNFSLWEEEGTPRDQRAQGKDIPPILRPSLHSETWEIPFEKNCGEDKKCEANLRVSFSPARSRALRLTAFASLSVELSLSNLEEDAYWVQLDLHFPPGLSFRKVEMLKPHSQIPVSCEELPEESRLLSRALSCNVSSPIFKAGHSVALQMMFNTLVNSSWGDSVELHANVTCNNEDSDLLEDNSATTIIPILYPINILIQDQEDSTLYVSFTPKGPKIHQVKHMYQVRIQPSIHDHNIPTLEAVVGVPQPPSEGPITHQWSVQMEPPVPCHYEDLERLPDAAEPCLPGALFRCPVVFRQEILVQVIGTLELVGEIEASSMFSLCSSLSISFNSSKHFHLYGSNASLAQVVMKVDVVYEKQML
Chain of sLFA-1/ICAM-1 (P05107 23-700 limits assumed, stated change not applied): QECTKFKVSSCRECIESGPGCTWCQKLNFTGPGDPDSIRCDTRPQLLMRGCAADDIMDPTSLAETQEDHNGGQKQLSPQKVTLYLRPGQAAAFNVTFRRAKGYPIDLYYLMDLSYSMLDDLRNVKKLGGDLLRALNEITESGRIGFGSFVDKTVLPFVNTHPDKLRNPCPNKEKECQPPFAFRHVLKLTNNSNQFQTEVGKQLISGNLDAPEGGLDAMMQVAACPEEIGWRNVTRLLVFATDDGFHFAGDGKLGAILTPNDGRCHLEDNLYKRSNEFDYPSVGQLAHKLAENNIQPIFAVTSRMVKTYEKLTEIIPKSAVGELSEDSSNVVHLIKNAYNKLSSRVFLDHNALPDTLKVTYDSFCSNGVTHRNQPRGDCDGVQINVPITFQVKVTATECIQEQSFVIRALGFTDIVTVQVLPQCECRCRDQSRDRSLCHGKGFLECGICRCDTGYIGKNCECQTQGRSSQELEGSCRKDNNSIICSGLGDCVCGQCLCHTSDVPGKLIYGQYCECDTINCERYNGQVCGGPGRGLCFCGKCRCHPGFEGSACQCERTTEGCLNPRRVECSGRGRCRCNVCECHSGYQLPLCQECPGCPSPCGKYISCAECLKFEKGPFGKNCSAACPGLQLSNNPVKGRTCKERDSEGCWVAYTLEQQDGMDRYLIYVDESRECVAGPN
Chain of Mac-1/ICAM-1 (P05107 23-769, other chains not shown): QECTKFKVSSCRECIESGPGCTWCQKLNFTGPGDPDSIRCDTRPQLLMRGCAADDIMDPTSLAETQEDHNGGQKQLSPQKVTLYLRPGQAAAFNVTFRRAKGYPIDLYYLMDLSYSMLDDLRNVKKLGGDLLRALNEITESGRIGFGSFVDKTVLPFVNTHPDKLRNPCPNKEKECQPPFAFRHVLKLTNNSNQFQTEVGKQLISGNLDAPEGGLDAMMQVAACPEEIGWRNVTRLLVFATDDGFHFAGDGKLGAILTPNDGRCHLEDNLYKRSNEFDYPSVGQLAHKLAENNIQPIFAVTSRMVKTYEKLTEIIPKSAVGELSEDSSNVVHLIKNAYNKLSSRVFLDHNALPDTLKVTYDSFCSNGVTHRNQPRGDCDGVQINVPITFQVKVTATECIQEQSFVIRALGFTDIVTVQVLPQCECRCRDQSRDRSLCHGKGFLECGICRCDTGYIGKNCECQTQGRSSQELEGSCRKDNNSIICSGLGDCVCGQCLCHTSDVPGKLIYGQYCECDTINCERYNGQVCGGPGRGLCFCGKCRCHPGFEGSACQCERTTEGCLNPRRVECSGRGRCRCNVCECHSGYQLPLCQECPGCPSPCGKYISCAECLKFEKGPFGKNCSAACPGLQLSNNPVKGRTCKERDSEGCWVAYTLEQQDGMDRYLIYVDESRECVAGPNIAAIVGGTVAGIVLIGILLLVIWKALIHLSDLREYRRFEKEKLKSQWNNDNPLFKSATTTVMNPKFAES

**Q.** With `Cc1nc(NCC#Cc2cccc(O)c2)nc(C)c1C(=O)N[C@@H](CNC(=O)c1cccs1)C(=O)O` [Example 61, (S)-2-({2-[3-(3-Hydroxy-phenyl)-prop-2-ynylamino]-4,6-dimethyl-pyrimidine-5-carbonyl}-amino)-3-[(thiophene-2-carbonyl)-amino]-propionic acid] as the molecule, how does the IC50 (Mac-1/ICAM-1) read?
**A.** 55 nM

**Q.** And the IC50 (sLFA-1/ICAM-1)?
**A.** 41 nM

**Q.** And the IC50 [1]?
**A.** 1180 nM

Source: US20120270875A1, “PYRIMIDINE AMIDE COMPOUNDS” (priority 2011, published 2012)
